Measurements from the CheMixHub viscosity set.
Several values for one entry are separate records, joined by “and”; a condition that tells them apart may be missing. Identical values can stand only once.

Experiment: xn = mol fraction of the nth substance listed

NC(CO)(CO)CO + O
Conditions | viscosity [mPa·s]
298.15 K, 101 kPa, x1 = 0.001 | 0.91
298.15 K, 101 kPa, x1 = 0.01 | 1.03
298.15 K, 101 kPa, x1 = 0.022 | 1.18
298.15 K, 101 kPa, x1 = 0.034 | 1.46
298.15 K, 101 kPa, x1 = 0.055 | 1.97
303 K, 101 kPa, x1 = 0.06 | 2.19
303.15 K, 101 kPa, x1 = 0.001 | 0.79
303.15 K, 101 kPa, x1 = 0.01 | 0.91
303.15 K, 101 kPa, x1 = 0.022 | 1.05
303.15 K, 101 kPa, x1 = 0.034 | 1.28
303.15 K, 101 kPa, x1 = 0.055 | 1.77
303.15 K, 101.33 kPa, x1 = 0.008 | 0.905
303.15 K, 101.33 kPa, x1 = 0.02 | 1.042
303.15 K, 101.33 kPa, x1 = 0.04 | 1.475
303.15 K, 101.33 kPa, x1 = 0.047 | 1.789
308.15 K, 101 kPa, x1 = 0.001 | 0.69
308.15 K, 101 kPa, x1 = 0.01 | 0.79
308.15 K, 101 kPa, x1 = 0.022 | 0.94
308.15 K, 101 kPa, x1 = 0.034 | 1.14
308.15 K, 101 kPa, x1 = 0.055 | 1.54
313 K, 101 kPa, x1 = 0.06 | 1.68
313.15 K, 101 kPa, x1 = 0.001 | 0.62
313.15 K, 101 kPa, x1 = 0.01 | 0.71
313.15 K, 101 kPa, x1 = 0.022 | 0.85
313.15 K, 101 kPa, x1 = 0.034 | 1.03
313.15 K, 101 kPa, x1 = 0.055 | 1.37
313.15 K, 101.33 kPa, x1 = 0.008 | 0.738
313.15 K, 101.33 kPa, x1 = 0.02 | 0.846
313.15 K, 101.33 kPa, x1 = 0.026 | 0.981
313.15 K, 101.33 kPa, x1 = 0.047 | 1.399
318.15 K, 101 kPa, x1 = 0.001 | 0.58
318.15 K, 101 kPa, x1 = 0.01 | 0.65
318.15 K, 101 kPa, x1 = 0.022 | 0.77
318.15 K, 101 kPa, x1 = 0.034 | 0.93
318.15 K, 101 kPa, x1 = 0.055 | 1.22
323 K, 101 kPa, x1 = 0.06 | 1.32
323.15 K, 101 kPa, x1 = 0.001 | 0.52
323.15 K, 101 kPa, x1 = 0.022 | 0.71
323.15 K, 101 kPa, x1 = 0.034 | 0.84
323.15 K, 101 kPa, x1 = 0.055 | 1.11
323.15 K, 101.33 kPa, x1 = 0.008 | 0.616
323.15 K, 101.33 kPa, x1 = 0.02 | 0.705
323.15 K, 101.33 kPa, x1 = 0.026 | 0.811
323.15 K, 101.33 kPa, x1 = 0.04 | 0.962
323.15 K, 101.33 kPa, x1 = 0.047 | 1.129

O=P(O)(O)OP(=O)(O)O + O
viscosity, 101 kPa
Conditions | 313 K | 323 K
x1 = 0.009 | 0.95 mPa·s and 0.8 mPa·s | –
x1 = 0.015 | 1.49 mPa·s and 1.2 mPa·s | –
x1 = 0.02 | 1.75 mPa·s | 1.39 mPa·s
x1 = 0.026 | 2.86 mPa·s | 2.38 mPa·s
x1 = 0.03 | 4.79 mPa·s and 3.85 mPa·s | –
x1 = 0.0306 | 3.76 mPa·s | 2.03 mPa·s
x1 = 0.04 | 5.82 mPa·s and 4.7 mPa·s | –
x1 = 0.045 | 7.65 mPa·s | 6.05 mPa·s
x1 = 0.051 | 9.8 mPa·s and 6.88 mPa·s | –
x1 = 0.055 | 10.9 mPa·s and 8.82 mPa·s | –
x1 = 0.062 | 15.6 mPa·s | 12.16 mPa·s

O=S(=O)(O)CCCN1CCOCC1 + O
viscosity [mPa·s], 101.3 kPa
Conditions | x1 = 0.003708 | x1 = 0.007256 | x1 = 0.009684 | x1 = 0.01083 | x1 = 0.01439 | x1 = 0.0179
298.15 K | 0.947 | 1.027 | 1.07 | 1.098 | 1.189 | 1.276
308.15 K | 0.765 | 0.826 | 0.863 | 0.886 | 0.963 | 1.03
318.15 K | 0.634 | 0.684 | 0.711 | 0.733 | 0.797 | 0.851

OCCC1CCCCN1 (stereo not given) + O
viscosity [mPa·s], 101.3 kPa
Conditions | x1 = 0.0153 | x1 = 0.0564 | x1 = 0.102 | x1 = 0.173 | x1 = 0.295
298.15 K | 1.426 | 3.959 | 9.631 | 24.9 | 89.03
313.15 K | 1.025 | 2.371 | 5.15 | 11.33 | 35.53

OC[C@H]1O[C@H](O[C@H]2O[C@H](CO)[C@@H](O)[C@H](O)[C@H]2O)[C@H](O)[C@@H](O)[C@@H]1O + O
298.15 K, 101 kPa
Conditions | viscosity [mPa·s]
x1 = 0.0009 | 0.935
x1 = 0.001798 | 0.982
x1 = 0.002695 | 1.032
x1 = 0.00359 | 1.084
x1 = 0.004484 | 1.139
x1 = 0.005375 | 1.197
